Patent US5525350A, “Supplementation of protein diets with di- and tripeptides” (Kansas State University Research Foundation, priority 1994, dated 1996)
Structures can show the parent of a compound that is named as a salt. Peptide text beside a SMILES is read from it.

How the values were obtained:
[1] = serum urea nitrogen (nitrogen utilization) in starter pigs; format: in vivo; conditions: for d 7 urea N: day 7; for d 14 urea N: day 14
From the text: (§1) A trial of 180 (21±2 days of age) pigs was used in a growth assay to compare the effects of supplementing the pigs' diet with L-lysine^. HCl, 98% (78.5% lysine), and the dipeptide L-lysyl-glycine^. HCl (approximately 50% lysine) on starter pig performance and nitrogen utilization. Pigs were blocked (n=5) by initial weight (6.3 kg) and assigned to treatments according to ancestry and sex. Feed and water were available ad libitum for 21 days post-weaning (11.7 kg final weight). The control diets were formulated to include 0.9% and 1.1% lysine respectively, using a corn-soybean meal mixture containing 15% edible grade dried whey. Synthetic lysine^. HCl and the dipeptide lysyl-glycine were added to the control diets to form test diets containing 1.0% and 1.1% lysine and lysyl-glycine respectively. The following table sets forth each of the six diets used in this study.
(§2) Serum samples were obtained on days 7, 14, and 21 for analysis of urea nitrogen. Data were analyzed as a randomized complete block design and means were separated using Bonferroni pared t-tests. Single df contrasts were used to evaluate differences between the two lysine sources and levels. No differences in daily gain or daily feed intake were observed between treatments. In general, pigs consuming the 1.1% lysine corn-soybean meal control diet had higher urea nitrogen than the pigs consuming the reduced protein diets and those consuming the 1.1% lysine, lysyl-glycine supplemented diet had the lowest urea nitrogen. Pigs consuming the diets containing lysyl-glycine had lower urea nitrogen levels than pigs fed the lysine^. HCl diets on day 21. […] HCl as evidenced by the lower serum urea nitrogen levels on day 21.

[2] = tested on: pigs; assay: growth assay, starter pig performance 0-21 days post-weaning; format: in vivo; conditions: for Daily gain: fed ad libitum
From the text: as §1, §2

[3] = serum, day 21, diet 1.0% lysine
[4] = serum, day 21, diet 1.1% lysine

SMILES | d 7 urea N ([1]; serum, diet 1.0% lysine) [mg/dL] | d 7 urea N ([1]; serum, diet 1.1% lysine) [mg/dL] | d 14 urea N ([1]; serum, diet 1.0% lysine) [mg/dL] | d 14 urea N ([1]; serum, diet 1.1% lysine) [mg/dL] | d 21 urea N [1, 3] [mg/dL] | d 21 urea N [1, 4] [mg/dL] | Daily feed ([2]; diet 1.0% lysine) [g] | Gain/feed ([2]; diet 1.0% lysine) | Daily gain ([2]; diet 1.0% lysine) [g] | Daily feed ([2]; diet 1.1% lysine) [g] | Gain/feed ([2]; diet 1.1% lysine) | Daily gain ([2]; diet 1.1% lysine) [g] | amino acid utilization compared with lysine HCl ([1]; as evidenced by lower serum urea nitrogen on day 21) | urea nitrogen levels compared with pigs fed the lysine HCl diets ([1]; serum, day 21, P = 0.05) | urea nitrogen compared with the other diets ([1]; serum, 1.1% lysine, lysyl-glycine supplemented diet, in general)
NCCCC[C@H](N)C(=O)O [Lysine HCl, L-lysine^. HCl, reference compound] | 9.5 | 9.2 | 9.6 | 8.4 | 10.7 | 8.5 | 460 | 600 | 276 | 413 | 613 | 253 | – | – | –
NCCCC[C@H](N)C(=O)NCC(=O)O [Lysyl-glycine, L-lysyl-glycine^. HCl] (H-Lys-Gly-OH) | 9.7 | 8.5 | 8.9 | 8.6 | 9.1 | 7.9 | 395 | 547 | 218 | 432 | 643 | 280 | more efficiently utilized | lower | lowest
